Results on 10 molecules are retold here after ChEMBL document CHEMBL2062441, “An Orally Available 3-Ethoxybenzisoxazole Capsid Binder with Clinical Activity against Human Rhinovirus” (ACS Med Chem Lett, 2012).

Data set [1] concerns Human rhinovirus sp. The data set can be described thus: Antirhinoviral activity against Human rhinovirus 14 infected in human HeLa cells assessed as inhibition of virus-induced cytopathic effect after 5 days by MTT assay. It is filed as functional, organism-based. The following applies: Human rhinovirus sp., 14, HeLa, 120 h. A general note: Cytopathic effects are the visible damage that an infection or toxin causes in cultured cells.

The test system of a further data set is rhinovirus A2. The data set can be described thus: Antirhinoviral activity against Human rhinovirus 2 infected in human HeLa cells assessed as inhibition of virus-induced cytopathic effect after 5 days by MTT assay. Conditions: Rhinovirus A, 120 h. The data set is classed as functional, organism-based.
For data set [2], the system named is Human rhinovirus sp. Briefly: Ratio of EC50 for Human rhinovirus B to EC50 for Human rhinovirus A. The data set is classed as functional.
Data set [3] deals with Human rhinovirus sp. The data set can be described thus: Antirhinoviral activity against antiviral-resistant Human rhinovirus A infected in human HeLa cells assessed as inhibition of virus-induced cytopathic effect after 5 days by MTT assay. It is filed as functional, organism-based. The following applies: 120 h.
In data set [4] the test system is Human rhinovirus sp. The data set can be described thus: Antirhinoviral activity against Human rhinovirus B infected in human HeLa cells assessed as inhibition of virus-induced cytopathic effect after 5 days by MTT assay. The following applies: 120 h. The data set is classed as functional, organism-based.
The subject of data set [5] is Human rhinovirus sp. Briefly: Antirhinoviral activity against minor receptor-resistant Human rhinovirus infected in human HeLa cells assessed as inhibition of virus-induced cytopathic effect after 5 days by MTT assay. It is filed as functional, organism-based. The following applies: 120 h.
Data set [6] deals with Human rhinovirus sp. Briefly: Ratio of EC50 for antiviral-resistant Human rhinovirus B to EC50 for antiviral-resistant Human rhinovirus A. The data set is classed as functional.
Data set [7] relates to Human rhinovirus sp. The data set can be described thus: Ratio of EC50 for major receptor-resistant Human rhinovirus B to EC50 for minor receptor-resistant Human rhinovirus A. The data set is classed as functional.
The test system of data set [8] is Human rhinovirus sp. Briefly: Antirhinoviral activity against major receptor-resistant Human rhinovirus infected in human HeLa cells assessed as inhibition of virus-induced cytopathic effect after 5 days by MTT assay. The data set is classed as functional, organism-based. The following applies: 120 h.
The test system of data set [9] is Human rhinovirus sp. Briefly: Antirhinoviral activity against Human rhinovirus A infected in human HeLa cells assessed as inhibition of virus-induced cytopathic effect after 5 days by MTT assay. The data set is classed as functional, organism-based. The following applies: 120 h.
Data set [10] relates to Human rhinovirus sp. Briefly: Antirhinoviral activity against antiviral-resistant Human rhinovirus B infected in human HeLa cells assessed as inhibition of virus-induced cytopathic effect after 5 days by MTT assay. The data set is classed as functional, organism-based. Conditions: 120 h.
A short description of data set [11]: in vivo. Conditions: female, Lister hooded, rat, po, 50 mg/kg.
Description: Tmax in female lister hooded rat at 50 mg/kg, po
Data set [12] is described as follows: Half life in female beagle dog at 50 mg/kg, po. Conditions: in vivo.
Data set [13] can be described thus: in vivo. Conditions: female, beagle, dog, plasma, po, 50 mg/kg.
Description: AUC in female beagle dog at 50 mg/kg, po
Data set [14] is described as follows: in vivo. Conditions: female, Lister hooded, rat, po, 50 mg/kg. This is another data set of the same source.
Description: Oral bioavailability in female lister hooded rat at 50 mg/kg administered as single dose
Data set [15] is described as follows: in vivo. The following applies: male, beagle, dog, po, 50 mg/kg.
Description: Cmax in male beagle dog at 50 mg/kg, po
Data set [16] is described as follows: in vivo. Conditions: male, Lister hooded, rat, po, 50 mg/kg.
Description: Oral bioavailability in male lister hooded rat at 50 mg/kg administered as single dose
Data set [17] is described as follows: in vivo. Conditions: male, beagle, dog, po, 50 mg/kg. This is another data set of the same source.
Description: Tmax in male beagle dog at 50 mg/kg, po
A short description of data set [18]: in vivo. Conditions: male, beagle, dog, plasma, po, 50 mg/kg.
Description: AUC in male beagle dog at 50 mg/kg, po
A short description of data set [19]: AUC (0 to infinity) in human at 400 mg administered as single dose. The following applies: plasma.
A short description of data set [20]: Half life in human at 400 mg administered as single dose. Conditions: in vivo.
Data set [21] in a line: Cmax in human at 400 mg administered as single dose. The following applies: in vivo.
Data set [22] in a line: Half life in male lister hooded rat at 50 mg/kg, po. Conditions: in vivo.
The nature of data set [23]: in vivo. The following applies: female, Lister hooded, rat, plasma, po, 50 mg/kg.
Description: AUC in female lister hooded rat at 50 mg/kg, po
Data set [24] can be described thus: Half life in male beagle dog at 50 mg/kg, po. The following applies: in vivo.
A short description of data set [25]: in vivo. The following applies: male, Lister hooded, rat, po, 50 mg/kg. This is another data set of the same source.
Description: Cmax in male lister hooded rat at 50 mg/kg, po
The nature of data set [26]: in vivo. The following applies: female, Lister hooded, rat, po, 50 mg/kg. The source holds these as a separate data set.
Description: Cmax in female lister hooded rat at 50 mg/kg, po
A short description of data set [27]: Tmax in human at 400 mg administered as single dose. Conditions: in vivo.
A short description of data set [28]: in vivo. Conditions: female, beagle, dog, po, 50 mg/kg.
Description: Tmax in female beagle dog at 50 mg/kg, po
The nature of data set [29]: in vivo. The following applies: male, Lister hooded, rat, plasma, po, 50 mg/kg.
Description: AUC in male lister hooded rat at 50 mg/kg, po
Data set [30] in a line: Half life in female lister hooded rat at 50 mg/kg, po. Conditions: in vivo.
Data set [31] in a line: in vivo. The following applies: female, beagle, dog, po, 50 mg/kg. This is another data set of the same source.
Description: Cmax in female beagle dog at 50 mg/kg, po
A short description of data set [32]: in vivo. Conditions: male, Lister hooded, rat, po, 50 mg/kg. The source holds these as a separate data set.
Description: Tmax in male lister hooded rat at 50 mg/kg, po

By EC50 is commonly meant the concentration that produces a half-maximal response. The Tmax is the time from dosing to the highest level. As a reminder, the half-life is how long it takes for the measured level to halve. A lower half-life goes with fast loss. The term AUC denotes the area under the concentration-time curve, a measure of exposure. Lower therefore signals low exposure. By bioavailability is commonly meant the share of a dose that reaches the circulation, judged against a reference dose that is usually intravenous. A higher bioavailability goes with good availability. Broadly, the Cmax is the peak of the concentration-time curve. For orientation: AUC(0-inf) means total exposure, with the tail of the curve extrapolated. Higher therefore signals more exposure.

Converted amounts (≈) assume the structure as drawn.

For the molecule `CCOc1noc2cc(OCCCC3CCN(c4ccc(Cl)nn4)CC3)ccc12`, the EC50 in the data set with Human rhinovirus sp. [1] was determined as 9 ng/mL (≈ 0.0216 µM); with rhinovirus A2, 3 ng/mL (≈ 0.0072 µM).
Turning to `CCOc1noc2cc(OCCC3CCN(c4ccc(Cl)nn4)CC3)ccc12`, the EC50 was 19 ng/mL (≈ 0.0472 µM) in the data set on Human rhinovirus sp. [1] and 3 ng/mL (≈ 0.00745 µM) with rhinovirus A2.
As to `CCOC(=O)/C=C/[C@H](C[C@@H]1CCNC1=O)NC(=O)[C@@H](CC(=O)[C@@H](NC(=O)c1cc(C)on1)C(C)C)Cc1ccc(F)cc1` [RUPINTRIVIR], the entries for the “Ratio EC50” value with Human rhinovirus sp. [2], in the data set with Human rhinovirus sp. [6] and in the data set with Human rhinovirus sp. [7] were 1.7, 1.7 and 2, respectively. In addition, the concentration for a half-maximal effect (EC50) is 1.2 ng/mL (≈ 0.002 µM) in the data set with Human rhinovirus sp. [3]; 1.2 ng/mL (≈ 0.002 µM) in the data set with Human rhinovirus sp. [4]; 3 ng/mL (≈ 0.00501 µM) in the data set with Human rhinovirus sp. [5]; 1.5 ng/mL (≈ 0.00251 µM) with Human rhinovirus sp. [8]; 2 ng/mL (≈ 0.00334 µM) with Human rhinovirus sp. [9]; 2 ng/mL (≈ 0.00334 µM) in the data set on Human rhinovirus sp. [10].
For `CCCOc1noc2cc(OCCC3CCN(c4ccc(C)nn4)CC3)ccc12`, the EC50 with Human rhinovirus sp. [1] was determined as 29 ng/mL (≈ 0.0731 µM); in the data set with rhinovirus A2, 3 ng/mL (≈ 0.00757 µM).
Regarding `CCOc1noc2cc(OCCC3CCN(c4ccc(C)nn4)CC3)ccc12` [VAPENDAVIR], the Tmax in “in vivo [11]” stood at 11.2 h; in “in vivo [17]”, 14.7 h; in [27] it was 1.03 h; in the data set “in vivo [28]”, 7.7 h; in “in vivo [32]”, 16 h. Also, the half-life in data set [12] is 15.9 h; in [20], 11.8 h; in [22] it was 51.6 h; in [24], 18.3 h; in data set [30], 46.4 h. In addition, the exposure (AUC) in the data set “in vivo [13]” amounted to 121 µg·h/mL; in the data set “in vivo [18]” it was 202 µg·h/mL; in “in vivo [23]”, 489 µg·h/mL; in “in vivo [29]”, 483 µg·h/mL. For the same molecule, the bioavailability in the data set “in vivo [14]” is 95%; in the data set “in vivo [16]” it was 94%. Also, the maximum concentration (Cmax) in “in vivo [15]” was 11000 ng/mL; in data set [21], 1890 ng/mL; in “in vivo [25]”, 22500 ng/mL; in the data set “in vivo [26]”, 17700 ng/mL; in the data set “in vivo [31]” it was 6100 ng/mL. In [19], this molecule showed an AUC(0-inf) of 13.8 µg·h/mL. In addition, the EC50 in the data set with rhinovirus A2 came out at 1 ng/mL (≈ 0.00261 µM).
As for `Cc1cc(CCCOc2c(C)cc(-c3noc(C(F)(F)F)n3)cc2C)on1` [PLECONARIL], the entries for the “Ratio EC50” value in the data set with Human rhinovirus sp. [2], in the data set with Human rhinovirus sp. [6] and in the data set on Human rhinovirus sp. [7] were 6, 11.5 and 2.1, respectively. Further, the EC50 in the data set on Human rhinovirus sp. [3] is 388 ng/mL (≈ 1.02 µM); with Human rhinovirus sp. [4], 224 ng/mL (≈ 0.588 µM); in the data set on Human rhinovirus sp. [5] it was 23.2 ng/mL (≈ 0.0608 µM); with Human rhinovirus sp. [8] it was 49.2 ng/mL (≈ 0.129 µM); in the data set with Human rhinovirus sp. [9], 37.4 ng/mL (≈ 0.0981 µM); in the data set on Human rhinovirus sp. [10] it was 33.8 ng/mL (≈ 0.0886 µM).
`CCCc1noc2cc(OCCC3CCN(c4ccc(C)nn4)CC3)ccc12`: the figures for the half-maximal effective concentration (EC50) with Human rhinovirus sp. [1] and in the data set on rhinovirus A2 were 13 ng/mL (≈ 0.0342 µM) and 84 ng/mL (≈ 0.221 µM), respectively.
In the case of `CCc1noc2cc(OCCC3CCN(c4ccc(C)nn4)CC3)ccc12`, the EC50 in the data set with Human rhinovirus sp. [1] turned out to be 88 ng/mL (≈ 0.24 µM); in the data set with rhinovirus A2, 24 ng/mL (≈ 0.0655 µM).
In the case of `CCOC(=O)c1ccc(OCCC2CCN(c3ccc(C)nn3)CC2)cc1` [PIRODAVIR], the “Ratio EC50” value was 2.8 with Human rhinovirus sp. [2], 8.1 with Human rhinovirus sp. [6] and 2.4 with Human rhinovirus sp. [7]. Moreover, the EC50 with Human rhinovirus sp. [3] worked out at 20.6 ng/mL (≈ 0.0558 µM); in the data set on Human rhinovirus sp. [4], 11.1 ng/mL (≈ 0.03 µM); in the data set on Human rhinovirus sp. [5] it was 2.3 ng/mL (≈ 0.00623 µM); in the data set on Human rhinovirus sp. [1] it was 4 ng/mL (≈ 0.0108 µM); in the data set on Human rhinovirus sp. [8], 5.6 ng/mL (≈ 0.0152 µM); in the data set on Human rhinovirus sp. [9], 4 ng/mL (≈ 0.0108 µM). Further, the half-maximal effective concentration (EC50) was determined as 2.6 ng/mL (≈ 0.00704 µM) in the data set on Human rhinovirus sp. [10] and 3 ng/mL (≈ 0.00812 µM) in the data set on rhinovirus A2.
With `CCOc1nsc2cc(OCCC3CCN(c4ccc(C)nn4)CC3)ccc12`, the values for the EC50 with Human rhinovirus sp. [1] and with rhinovirus A2 were 29 ng/mL (≈ 0.0728 µM) and 3 ng/mL (≈ 0.00753 µM), respectively.
